Experimental findings from US12661355B2, “Compounds and methods for inducing UCP1 expression” (The Regents of the University of California, priority 2020, dated 2026) are described below.

One assay deals with CYTC and GAPDH. In words: Western blot of mitochondria-associated proteins, CYTC and GAPDH. It counts as cell-based, mouse. As to conditions: brown adipocytes, 10 μM. How it is done: Cells and tissues were lysed in 10 mM Tris pH 7.5, 10 mM NaCl, 1 mM EDTA and 0.5% Triton X-100, supplemented with complete mini EDTA-free protease (Roche Diagnostics) and phosphatase (Cocktail 2 and 3, Sigma) inhibitors, followed by 10 second sonication. For analysis of mitochondrial proteins, mitochondria were isolated from cells by dual centrifugation, as described. Protein lysates were separated by SDS-PAGE and transferred to a nitrocellulose membrane. Transfer was confirmed by Ponceau staining (P7170, Sigma). After blocking in 5% milk, 0.1% Tween-20 in Tris-buffered saline (TBS), primary antibody was incubated overnight at 4° C. in 5% bovine serum albumin and 0.1% Tween-20 in TBS. Primary antibodies against ACTB (GTX109639, GeneTex), AKAP1 (5203, Cell Signaling), AKAP6 (07-087, Millipore), Cytochrome c (136F3, Cell Signaling), electron transport chain protein complexes (Total OXPHOS rodent WB antibody cocktail ab110413, Abcam), GAPDH (GTX100118, Genetex), active p38 MAPK (V1211, Promega), total p38 MAPK (8690, Cell Signaling), PGC1α (AB3242, Millipore), phospho-(Ser/Thr) PKA substrate (9621, Cell Signaling), PKA C-α (4782, Cell Signaling), PKA RII-β (ab75993, Abcam), and UCP1 (662045, Calbiochem) were used at 1:2000. […] Quantification using representative bands from the Ponceau staining was performed with ImageJ. […]

The test system of assay [1] is electron transport chain protein complexes. Briefly: Western blot of electron transport chain protein complexes in isolated mitochondria. It counts as cell-based, mouse. As to conditions: overnight 10 μM. On the procedure: Cells and tissues were lysed in 10 mM Tris pH 7.5, 10 mM NaCl, 1 mM EDTA and 0.5% Triton X-100, supplemented with complete mini EDTA-free protease (Roche Diagnostics) and phosphatase (Cocktail 2 and 3, Sigma) inhibitors, followed by 10 second sonication. For analysis of mitochondrial proteins, mitochondria were isolated from cells by dual centrifugation, as described. Protein lysates were separated by SDS-PAGE and transferred to a nitrocellulose membrane. Transfer was confirmed by Ponceau staining (P7170, Sigma). After blocking in 5% milk, 0.1% Tween-20 in Tris-buffered saline (TBS), primary antibody was incubated overnight at 4° C. in 5% bovine serum albumin and 0.1% Tween-20 in TBS. Primary antibodies against ACTB (GTX109639, GeneTex), AKAP1 (5203, Cell Signaling), AKAP6 (07-087, Millipore), Cytochrome c (136F3, Cell Signaling), electron transport chain protein complexes (Total OXPHOS rodent WB antibody cocktail ab110413, Abcam), GAPDH (GTX100118, Genetex), active p38 MAPK (V1211, Promega), total p38 MAPK (8690, Cell Signaling), PGC1α (AB3242, Millipore), phospho-(Ser/Thr) PKA substrate (9621, Cell Signaling), PKA C-α (4782, Cell Signaling), PKA RII-β (ab75993, Abcam), and UCP1 (662045, Calbiochem) were used at 1:2000. […] Quantification using representative bands from the Ponceau staining was performed with ImageJ.
Background: A western blot detects proteins with antibodies after separation by electrophoresis.

The subject of another assay is brown adipocytes. Briefly: Lipolysis assay in brown adipocytes. It is filed as cell-based, mouse. As to conditions: immortalized brown adipocytes, 10 μM overnight. How it is done:
Lipolysis was assessed in cultured cells using medium collected over 3 h with the Adipolysis assay kit (AB100, Millipore), according to the manufacturer's protocol.

A further assay addresses T1, AKAP1 (Rattus norvegicus, UniProt O88884).
T1 construct: DARTS assay in H9c2 cell extracts treated with vehicle or 20 μM Z160 for 1 h; endogenous in cells; host or cells: rat H9c2 cells
In words: DARTS in H9c2 cell extracts, AKAP1. It counts as binding. The settings on record: 20 μM, 1 h. On the procedure:
Rat H9c2 cells were grown in DMEM supplemented with 10% FBS, 25 mM glucose, 1 mM pyruvate, and 2 mM glutamine Neonatal rat ventricular myocytes (NRVM) were isolated and cultured as previously described. Briefly, 2-4 day old rats were sacrificed and myocytes and fibroblasts were isolated and separated using a Percoll density gradient. Following isolation, NRVMs were plated on gelatin-coated plates in DMEM containing 10% FBS, 25 mM glucose, 1 mM pyruvate, and 2 mM glutamine The next day, FBS was replaced by 1× insulin-transferrin-selenium supplement and the cells were treated with vehicle or 10 μM Z160 for 2 days, with or without 60 μM isoproterenol or 50 μM phenylephrine.
[…] assays were performed according to known methods. Briefly, BAT or cells within a 10 cm dish were lysed with 600 μl M-PER buffer containing protease and phosphatase inhibitors. Debris was pelleted by centrifugation at 18,000 g for 10 min at 4° C., and the lysates were harvested and supplemented with TNC buffer (50 mM Tris-HCl, 50 mM NaCl, 10 mM CaCl2). The lysates were split into two tubes and treated with either vehicle or 20 μM Z160 for 1 h at room temperature. For experiment with BAT, 100 μg of lysate was incubated with different Z160 concentrations. […]

For the next assay, the system named is PKA. In words: PKA activity ELISA, cell or tissue lysates treated 30 min. The settings on record: 30 min; for PKA activity: brown adipocyte lysate. It counts as biochemical, mouse. On the procedure: PKA kinase activity was measured with an ELISA that utilized a synthetic peptide as substrate for PKA and a polyclonal antibody that recognizes the phosphorylated form of the substrate (ab139435, Abcam). PKA activity was measured in lysates from cultured brown adipocytes, mouse BAT, or liver. Cells and tissues were lysed in 20 mM MOPS, 5 mM EGTA, 2 mM EDTA, and 0.1% Triton X-100 supplemented with protease and phosphatase inhibitor as described above. Protein concentration was determined by Bradford assay and 10 μg of cells, 0.25 μg of BAT extract, or 0.5 μg of liver extract were assessed for PKA activation according to the manufacturer's instruction, with minor changes. Briefly, vehicle or Z160 was incubated with brown adipocyte cells overnight or with protein lysates for 30 min, followed by one wash before the primary antibody, 60 min incubation with the primary antibody, 30 min incubation with the secondary antibody, and by 10 min washing. Absorbance was measured after the substrate was added for 20-60 min, depending the intensity of the signal.

T1 sequence (O88884 30-854): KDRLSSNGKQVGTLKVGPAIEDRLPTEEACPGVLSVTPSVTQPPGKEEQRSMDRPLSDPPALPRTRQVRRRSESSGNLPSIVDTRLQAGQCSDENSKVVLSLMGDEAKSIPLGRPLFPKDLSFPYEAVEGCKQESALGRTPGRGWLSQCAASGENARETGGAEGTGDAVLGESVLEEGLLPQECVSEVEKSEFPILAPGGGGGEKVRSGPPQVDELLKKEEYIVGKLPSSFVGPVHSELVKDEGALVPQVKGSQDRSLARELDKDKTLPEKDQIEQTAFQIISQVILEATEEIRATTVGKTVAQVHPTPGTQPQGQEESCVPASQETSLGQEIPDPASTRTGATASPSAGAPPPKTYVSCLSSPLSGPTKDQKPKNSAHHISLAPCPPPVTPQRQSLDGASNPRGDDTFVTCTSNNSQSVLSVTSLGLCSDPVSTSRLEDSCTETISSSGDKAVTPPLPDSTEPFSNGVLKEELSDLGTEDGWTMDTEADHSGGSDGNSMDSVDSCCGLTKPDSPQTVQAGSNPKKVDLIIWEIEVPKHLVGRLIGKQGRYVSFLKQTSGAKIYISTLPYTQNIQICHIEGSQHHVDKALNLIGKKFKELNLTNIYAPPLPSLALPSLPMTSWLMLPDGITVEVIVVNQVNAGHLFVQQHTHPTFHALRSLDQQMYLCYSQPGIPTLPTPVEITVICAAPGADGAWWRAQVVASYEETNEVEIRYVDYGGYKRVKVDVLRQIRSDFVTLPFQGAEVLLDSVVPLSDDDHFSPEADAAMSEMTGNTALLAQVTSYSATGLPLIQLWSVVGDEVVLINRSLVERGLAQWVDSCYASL

As to `COc1ccc(NC(=O)CSc2nc3ccccc3c(=O)[nH]2)c(OC)c1` [Z160], the “levels of CYTC and GAPDH in the mitochondrial fraction” value with CYTC and GAPDH is given as “not altered”. The “mitochondrial complex protein abundance” value in assay [1] is recorded as “slight enhancement”. Further, in the assay with brown adipocytes, the lipolysis entry was “induced lipolysis”. The “pronase susceptibility of AKAP1” value on AKAP1 is “not”. In addition, the PKA activity result with PKA (25 μM) and in the assay with PKA (50 μM) was “significant increase” throughout. The PKA activation entry in the assay on PKA (mouse BAT extract, 25 μM) is “stimulated PKA activation”; in the assay with PKA (mouse liver extract, 25 μM), “stimulated PKA activation”.
